Experimental data from patent publication US12673933B2, “Aminopyrazine compounds as HPK1 inhibitor and the use thereof” (BEIGENE, LTD., priority 2019, dated 2026).

These compounds were tested against T1, HPK1 kinase (aa1-346, Life Technologies) (Homo sapiens, UniProt Q92918) (assay: HPK Kinase Activity Assay at 1 mM ATP (TR-FRET)). Conditions: HPK1 kinase 40 nM, 0.5 μM STK1 substrate, read-out: Enzymatic activity IC50.
T1 construct: HPK1 kinase (aa1-346, Life Technologies); purchased Life Technologies
T1 sequence (Q92918 1-346): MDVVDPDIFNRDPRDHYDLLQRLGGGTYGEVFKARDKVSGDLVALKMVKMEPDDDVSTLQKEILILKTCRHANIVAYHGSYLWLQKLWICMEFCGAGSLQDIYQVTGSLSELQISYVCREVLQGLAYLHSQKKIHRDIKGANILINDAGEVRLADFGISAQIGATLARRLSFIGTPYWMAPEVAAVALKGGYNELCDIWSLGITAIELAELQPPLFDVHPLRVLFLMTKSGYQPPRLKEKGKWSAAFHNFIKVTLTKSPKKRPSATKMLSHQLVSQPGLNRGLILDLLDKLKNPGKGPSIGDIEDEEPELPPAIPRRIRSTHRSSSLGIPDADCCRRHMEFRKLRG
Assay type: biochemical
Description: HPK Kinase Activity Assay at 1 mM ATP
Compounds disclosed herein were tested for inhibition of HPK1 kinase (aa1-346, Life Technologies) activity in assays based on the time-resolved fluorescence-resonance energy transfer (TR-FRET) methodology. The assays were carried out in 384-well low volume black plates in a reaction mixture containing HPK1 kinase (40 nM), 1 mM ATP, 0.5 μM STK1 substrate and 0-10 μM compound in buffer containing 50 mM HEPES, 0.01% BSA, 0.1 mM Orthovanadate, 10 mM MgCl2, 1 mM DTT, pH=7.0, 0.005% Tween-20. The kinase was incubated with the compounds disclosed herein or DMSO for 60 minutes at room temperature and the reaction was initiated by the addition of ATP and STK1 substrate. After reaction at room temperature for 120 minutes, an equal volume of stop/detection solution was added according to the manufacture's instruction (CisBio). The stop/detection solution contained STK Antibody-Cryptate and XL665-conjugated streptavidin in Detection Buffer. The TR-FRET signals (ratio of fluorescence emission at 665 nm over emission at 620 nm with excitation at 337 nm wavelength) were recorded on a PHERAstar FS plate reader (BMG Labtech). Phosphorylation of STK1 substrate led to the binding of STK Antibody-Cryptate to the biotinylated STK1 substrate, which places fluorescent donor (Eu^3+ crypate) in close proximity to the accepter (Streptavidin-XL665), thus resulting in a high degree of fluorescence resonance energy transfer. The inhibition of HPK1 in presence of increasing concentrations of compounds was calculated based on the ratio of fluorescence at 665 nm to that at 620 nm. The IC50 for each compound was derived from fitting the data to the four-parameter logistic equation by Graphpad Prism software.

Compound	IC50 [nM]
Cc1cc(-c2cnc(N)c(-c3cn[nH]c3)n2)cc2c1CCN(C)C2 [Example 36, 5-(2,5-dimethyl-1,2,3,4-tetrahydroisoquinolin-7-yl)-3-(1H-pyrazol-4-yl)pyrazin-2-amine]	93
CC(=O)Nc1cc(COc2nc(-c3cc(C)c4c(c3)CN(C)CC4)cnc2N)ccn1 [Example 39, N-(4-(((3-amino-6-(2,5-dimethyl-1,2,3,4-tetrahydroisoquinolin-7-yl)pyrazin-2-yl)oxy)methyl)pyridin-2-yl)acetamide]	85
CCOc1c(COc2nc(-c3cc(C)c4c(c3)CN(C)CC4)cnc2N)ccnc1N [Example 41, 3-((2-amino-3-ethoxypyridin-4-yl)methoxy)-5-(2,5-dimethyl-1,2,3,4-tetrahydroisoquinolin-7-yl)pyrazin-2-amine]	8.9
Cc1cc(-c2cnc(N)c(OCc3ccncc3Oc3ccccc3)n2)cc2c1CCN(C)C2 [Example 42, 5-(2,5-dimethyl-1,2,3,4-tetrahydroisoquinolin-7-yl)-3-((3-phenoxypyridin-4-yl)methoxy)pyrazin-2-amine]	94
CCn1cc(Oc2nc(-c3cc(C)c4c(c3)CN(C)CC4)cnc2N)cn1 [Example 45, 5-(2,5-dimethyl-1,2,3,4-tetrahydroisoquinolin-7-yl)-3-(1-ethyl-1H-pyrazol-4-yloxy)pyrazin-2-amine]	15
Cc1cc(-c2cnc(N)c(-n3cc(C(=O)N(C)C)cn3)n2)cc2c1CCN(C)C2 [Example 46, 1-(3-amino-6-(2,5-dimethyl-1,2,3,4-tetrahydroisoquinolin-7-yl)pyrazin-2-yl)-N,N-dimethyl-1H-pyrazole-4-carboxamide]	21
Cc1cc(-c2cnc(N)c(OCc3ccnc(N)c3Cl)n2)cc2c1CCN(C)C2 [Example 152, 3-((2-amino-3-chloropyridin-4-yl)methoxy)-5-(2,5-dimethyl-1,2,3,4-tetrahydroisoquinolin-7-yl)pyrazin-2-amine]	21
COc1cnccc1COc1nc(-c2cc3c(c(OC)c2)CCN(C)C3)cnc1N [Example 180, 5-(5-methoxy-2-methyl-1,2,3,4-tetrahydroisoquinolin-7-yl)-3-((3-methoxypyridin-4-yl)methoxy)pyrazin-2-amine]	21
COc1cnc2[nH]ccc2c1COc1nc(-c2cc(C)c3c(c2)CN(C)CC3)cnc1N [Example 188, 5-(2,5-dimethyl-1,2,3,4-tetrahydroisoquinolin-7-yl)-3-((5-methoxy-1H-pyrrolo[2,3-b]pyridin-4-yl)methoxy)pyrazin-2-amine]	8.1
Cc1cc(-c2cnc(N)c(OCc3cc(N)nc(N)c3)n2)cc2c1CCN(C)C2 [Example 222, 4-((3-amino-6-(2,5-dimethyl-1,2,3,4-tetrahydroisoquinolin-7-yl)pyrazin-2-yloxy)methyl)pyridine-2,6-diamine]	4
Cc1cc(-c2cnc(N)c(Oc3cnn(C(C)C)c3)n2)cc2c1CN(C)CC2 [Example 242, 5-(2,8-dimethyl-1,2,3,4-tetrahydroisoquinolin-6-yl)-3-(1-isopropyl-1H-pyrazol-4-yloxy)pyrazin-2-amine]	54
[2H]C([2H])(Oc1nc(-c2cc(C)c3c(c2)CN(C)CC3)cnc1N)c1ccnc(N)c1 [Example 266, 3-((2-aminopyridin-4-yl)methoxy-d2)-5-(2,5-dimethyl-1,2,3,4-tetrahydroisoquinolin-7-yl)pyrazin-2-amine]	5.1

Next, values leading:

IC50 [nM]	Compound
16	COc1c(COc2nc(-c3cc(C)c4c(c3)CN(C)CC4)cnc2N)ccnc1N [Example 35, 3-((2-amino-3-methoxypyridin-4-yl)methoxy)-5-(2,5-dimethyl-1,2,3,4-tetrahydroisoquinolin-7-yl)pyrazin-2-amine]
57	Cc1cc(-c2cnc(N)c(OCc3ccnc(NCC4CC4)c3)n2)cc2c1CCN(C)C2 [Example 38, 3-((2-((cyclopropylmethyl)amino)pyridin-4-yl)methoxy)-5-(2,5-dimethyl-1,2,3,4-tetrahydroisoquinolin-7-yl)pyrazin-2-amine]
29	CCNc1cc(COc2nc(-c3cc(C)c4c(c3)CN(C)CC4)cnc2N)ccn1 [Example 40, 5-(2,5-dimethyl-1,2,3,4-tetrahydroisoquinolin-7-yl)-3-((2-(ethylamino)pyridin-4-yl)methoxy)pyrazin-2-amine]
56	Cc1cc(-c2cnc(N)c(OCc3cc[nH]n3)n2)cc2c1CCN(C)C2 [Example 43, 3-((1H-pyrazol-3-yl)methoxy)-5-(2,5-dimethyl-1,2,3,4-tetrahydroisoquinolin-7-yl)pyrazin-2-amine]
19	Cc1cc(-c2cnc(N)c(OCc3ccnc4[nH]cnc34)n2)cc2c1CCN(C)C2 [Example 44, 3-((3H-imidazo[4,5-b]pyridin-7-yl)methoxy)-5-(2,5-dimethyl-1,2,3,4-tetrahydroisoquinolin-7-yl)pyrazin-2-amine and 3-((1H-imidazo[4,5-b]pyridin-7-yl)methoxy)-5-(2,5-dimethyl-1,2,3,4-tetrahydroisoquinolin-7-yl)pyrazin-2-amine]
47	Cc1cc(-c2cnc(N)c(O[C@H](C)c3c(Cl)ccc(C(=O)NC4CC4)c3Cl)n2)cc2c1CCN(C)C2 [Example 47A, (R)-3-(1-(3-amino-6-(2,5-dimethyl-1,2,3,4-tetrahydroisoquinolin-7-yl)pyrazin-2-yloxy)ethyl)-2,4-dichloro-N-cyclopropylbenzamide]
2680	Cc1cc(-c2cnc(N)c(O[C@@H](C)c3c(Cl)ccc(C(=O)NC4CC4)c3Cl)n2)cc2c1CCN(C)C2 [Example 47B, (S)-3-(1-(3-amino-6-(2,5-dimethyl-1,2,3,4-tetrahydroisoquinolin-7-yl)pyrazin-2-yloxy)ethyl)-2,4-dichloro-N-cyclopropylbenzamide]
16	Cc1cc(-c2cnc(N)c(OCc3ccncc3OC3CC3)n2)cc2c1CCN(C)C2 [Example 149, 3-((3-cyclopropoxypyridin-4-yl)methoxy)-5-(2,5-dimethyl-1,2,3,4-tetrahydroisoquinolin-7-yl)pyrazin-2-amine]
7.2	COc1cc(-c2cnc(N)c(OCc3ccnc(N)c3)n2)cc2c1CCN(C)C2 [Example 179, 3-((2-aminopyridin-4-yl)methoxy)-5-(5-methoxy-2-methyl-1,2,3,4-tetrahydroisoquinolin-7-yl)pyrazin-2-amine]
12	CNc1cc(-c2cnc(N)c(OCc3ccncc3OC)n2)cc2c1CCN(C)C2 [Example 205, 7-(5-amino-6-((3-methoxypyridin-4-yl)methoxy)pyrazin-2-yl)-N,2-dimethyl-1,2,3,4-tetrahydroisoquinolin-5-amine]
8	Cc1cc(-c2cnc(N)c(OCc3ccnc(N)c3OC3CCOCC3)n2)cc2c1CCN(C)C2 [Example 249, 3-((2-amino-3-((tetrahydro-2H-pyran-4-yl)oxy)pyridin-4-yl)methoxy)-5-(2,5-dimethyl-1,2,3,4-tetrahydroisoquinolin-7-yl)pyrazin-2-amine]
11	CN1CCc2c(cc(-c3cnc(N)c(OCc4ccnc(N)c4)n3)cc2C(F)(F)F)C1 [Example 271, 3-((2-aminopyridin-4-yl)methoxy)-5-(2-methyl-5-(trifluoromethyl)-1,2,3,4-tetrahydroisoquinolin-7-yl)pyrazin-2-amine]
8.4	Cc1cc(-c2cnc(N)c(Oc3cnn(C(C)C)c3)n2)cc2c1CCN(C)C2 [Example 272, 5-(2,5-dimethyl-1,2,3,4-tetrahydroisoquinolin-7-yl)-3-(1-isopropyl-1H-pyrazol-4-yloxy)pyrazin-2-amine]
